This note sets out measurements from patent US7332608B2, “Anthranilamides and methods of their use” (SANOFI-AVENTIS Deutschland GmbH, priority 2001, dated 2008).

T1 sequence (P22460 whole entry): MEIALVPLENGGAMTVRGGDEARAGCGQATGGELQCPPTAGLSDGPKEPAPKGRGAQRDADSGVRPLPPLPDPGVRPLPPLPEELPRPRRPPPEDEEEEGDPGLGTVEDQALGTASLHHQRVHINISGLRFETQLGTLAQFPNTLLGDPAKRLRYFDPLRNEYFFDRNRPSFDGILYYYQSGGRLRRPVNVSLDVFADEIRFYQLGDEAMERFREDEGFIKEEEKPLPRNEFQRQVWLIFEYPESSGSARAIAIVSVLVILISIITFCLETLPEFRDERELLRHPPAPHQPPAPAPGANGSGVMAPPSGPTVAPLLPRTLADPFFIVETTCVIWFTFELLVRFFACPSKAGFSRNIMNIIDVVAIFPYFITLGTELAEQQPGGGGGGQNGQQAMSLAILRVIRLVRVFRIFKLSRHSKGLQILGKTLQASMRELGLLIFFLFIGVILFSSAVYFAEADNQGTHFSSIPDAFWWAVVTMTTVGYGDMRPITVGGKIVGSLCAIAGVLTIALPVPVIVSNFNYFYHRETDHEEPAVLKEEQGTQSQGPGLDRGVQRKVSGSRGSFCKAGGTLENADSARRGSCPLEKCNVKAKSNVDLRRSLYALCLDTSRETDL

The assay has as its target T1, Human Kv1.5 channels (Homo sapiens, UniProt P22460).
T1 construct: expressed in transfected cells; host or cells: Xenopus laevis oocytes injected with in vitro synthesized Kv1.5-encoding RNA
Put plainly: Kv1.5 currents in Xenopus oocytes, two-microelectrode voltage clamp. Format: cell-based. To be noted: human Kv1.5 expressed in Xenopus laevis oocytes; voltage jumps 500 ms to 0 mV and 40 mV; room temperature; Hill equation. The procedure: Human Kv1.5 channels were expressed in Xenopus oocytes. For this purpose, firstly ooytes were isolated from Xenopus laevis and were defolliculated. Kv1.5-encoding RNA which had been synthesized in vitro was then injected into these oocytes. After 1-7 days of Kv1.5 protein expression, the Kv1.5 currents were measured on the oocytes by the two-microelectrode voltage clamp technique. The Kv1.5 channels were for this purpose usually activated with voltage jumps lasting 500 ms to 0 mV and 40 mV. A solution of the following composition flowed through the bath: NaCl 96 mM, KCl 2 mM, CaCl2 1.8 mM, MgCl2 1 mM, HEPES 5 mM (titrated to pH 7.4 with NaOH). These experiments were carried out at room temperature. The following were employed for data acquisition and analysis: geneclamp amplifier (Axon Instruments, Foster City, USA) and MacLab D/A converter and software (ADInstruments, Castle Hill, Australia). The compounds of the invention were tested by adding them in various concentrations to the bath solution. The effects of the compounds were calculated as percentage inhibition of the Kv1.5 control current which was obtained when no compound was added to the solution. The data were then extrapolated using the Hill equation in order to determine the inhibitory concentrations IC50 for the respective compounds.
On to `COc1ccc(NS(=O)(=O)c2ccc(C)cc2OC)c(C(=O)NC2CCC(C)CC2)c1` (stereo not drawn) [Example 27], for which 5600 nM corresponded to half-maximal inhibition (IC50). Take `Cc1ccc(S(=O)(=O)Nc2ccccc2C(=O)NC(C)c2ccccc2)cc1` (stereo not drawn) [Example 28]: the IC50 (commonly the midpoint of a concentration-inhibition curve) amounted to 3200 nM.

With `COc1cc(C)ccc1S(=O)(=O)Nc1ccc(Cl)cc1C(=O)NCCOCc1ccccc1` [Example 29], inhibition was half-maximal at 5100 nM (IC50).

`Cc1ccc(S(=O)(=O)Nc2ccccc2C(=O)N(Cc2ccccc2)Cc2nccn2C)cc1` [Example 30] yielded a concentration for half-maximal inhibition (IC50) of 700 nM. In turn, `Cc1ccc(S(=O)(=O)Nc2ccccc2C(=O)N(Cc2ccccc2)CC2CCCCC2)cc1` [Example 31] gave an IC50 of 2600 nM.

For `Cc1ccc(S(=O)(=O)Nc2ccccc2C(=O)N(CCCn2ccnc2)Cc2ccccc2)cc1` [Example 32], the IC50 stood at 8500 nM. The result for `Cc1ccc(S(=O)(=O)Nc2ccccc2C(=O)N(Cc2ccccc2)Cc2ccncc2)cc1` [Example 33] reads 6500 nM; that for `Cc1ccc(S(=O)(=O)Nc2ccccc2C(=O)N(Cc2cccnc2)CC2CC2)cc1` [Example 34], 3100 nM; that for `Cc1ccc(S(=O)(=O)Nc2ccccc2C(=O)N(Cc2ccccc2)Cc2nc3ccccc3[nH]2)cc1` [Example 35], 2000 nM.

Molecule `Cc1ccc(S(=O)(=O)Nc2ccccc2C(=O)N(Cc2ccccc2)Cc2ccc(C)o2)cc1` [Example 36] gave a concentration for half-maximal inhibition (IC50) of 2000 nM. `Cc1ccc(S(=O)(=O)Nc2ccccc2C(=O)N(Cc2ccccc2)CC2CC2)cc1` [Example 37]: inhibition was half-maximal at 1900 nM (IC50).

`Cc1ccc(S(=O)(=O)Nc2ccccc2C(=O)N(Cc2ccccc2)Cc2ccco2)cc1` [Example 38] displayed an IC50 of 1600 nM. Molecule `Cc1ccc(S(=O)(=O)Nc2ccccc2C(=O)N(CCCn2ccnc2C)Cc2ccccc2)cc1` [Example 39] showed a concentration for half-maximal inhibition (IC50) greater than 10000 nM. To `Cc1ccc(S(=O)(=O)Nc2cc(C)ccc2C(=O)N(Cc2ccccc2)Cc2nccn2C)cc1` [Example 40] belongs 800 nM. With `COc1ccc(NS(=O)(=O)c2ccc(C)cc2)c(C(=O)N(Cc2ccccc2)Cc2nccn2C)c1` [Example 41], the IC50 amounted to 1900 nM. Consider `Cc1ccc(S(=O)(=O)Nc2ccccc2C(=O)N(CCc2ccccn2)CC2CC2)cc1` [Example 42], for which half-maximal inhibition (IC50) required 5000 nM.

Regarding `COc1ccc(NS(=O)(=O)c2cccc(C(F)(F)F)c2)c(C(=O)N(Cc2ccccc2)Cc2nccn2C)c1` [Example 43], inhibition was half-maximal at 5400 nM (IC50). The result for `O=C(c1ccccc1NS(=O)(=O)c1ccc(Cl)cc1)N(Cc1ccccc1)Cc1cccnc1` [Example 44] reads 2900 nM. In turn, `Cc1ccc(S(=O)(=O)Nc2ccc(Cl)cc2C(=O)N(Cc2ccccc2)Cc2cccnc2)cc1` [Example 45] registered an IC50 of 2500 nM. The result for `Cc1ccc(S(=O)(=O)Nc2ccc(F)cc2C(=O)N(Cc2ccccc2)Cc2cccnc2)cc1` [Example 46] reads 1200 nM.

As to `COc1ccc(S(=O)(=O)Nc2cccc(C)c2C(=O)N(Cc2ccccc2)Cc2cccnc2)cc1` [Example 47], 4700 nM corresponded to half-maximal inhibition (IC50). `Cc1ccc(S(=O)(=O)Nc2ccccc2C(=O)N(Cc2ccncc2)CC2CC2)cc1` [Example 48] yielded a half-maximal inhibitory concentration (IC50) greater than 10000 nM. The result for `Cc1ccc(S(=O)(=O)Nc2ccccc2C(=O)N(CCc2cccnc2)CC2CC2)cc1` [Example 49] reads 6300 nM; that for `COc1ccc(S(=O)(=O)Nc2ccccc2C(=O)N(Cc2ccccc2)Cc2cccnc2)cc1` [Example 50], 700 nM. As for `CCC(Cc1ccccc1)NC(=O)c1cc(OC)ccc1NS(=O)(=O)c1ccc(C)cc1` (stereo not drawn) [Example 51], it took 3600 nM to reach half-maximal inhibition (IC50). The result for `CCC(Cc1ccccc1)NC(=O)c1ccccc1NS(=O)(=O)c1ccccc1` (stereo not drawn) [Example 52] reads 3000 nM; that for `CCC(NC(=O)c1cc(OC)ccc1NS(=O)(=O)c1ccc(C)cc1)c1ccncc1` (stereo not drawn) [Example 53], 2500 nM; that for `CCCCS(=O)(=O)Nc1ccc(C)cc1C(=O)NC1CCCCC1` [Example 54, 2-(Butylsulfonylamino)-N-cyclohexyl-5-methylbenzamide], 4000 nM.

`CCCCS(=O)(=O)Nc1ccc(C)cc1C(=O)NC(C)c1ccccc1` (stereo not drawn) [Example 55] returned an IC50 of 4600 nM.

The molecule `CCCCS(=O)(=O)N(CC)c1ccccc1C(=O)N[C@@H](CC)c1ccccc1` [Example 57] came in with a half-inhibitory concentration (IC50) of 5000 nM. On to `CCCCS(=O)(=O)Nc1ccccc1C(=O)N[C@@H](CC)c1ccccc1` [Example 58], for which the IC50 was greater than 10000 nM. Turning to `CC[C@H](NC(=O)c1ccccc1NS(=O)(=O)c1cccc(C)c1)c1ccccc1` [Example 59], the IC50 is 1700 nM.

On to `CC[C@H](NC(=O)c1ccccc1NS(=O)(=O)c1ccc(C)cc1)c1ccccc1` [Example 60], for which the IC50 is 700 nM. As for `CC[C@H](NC(=O)c1ccccc1NS(=O)(=O)c1ccc2ccccc2c1)c1ccccc1` [Example 61], half-maximal inhibition (IC50) required 5600 nM. On to `CC[C@H](NC(=O)c1ccccc1NS(=O)(=O)c1cccc2ccccc12)c1ccccc1` [Example 62], for which the 50% inhibitory concentration (IC50) is 3500 nM.

`CC[C@H](NC(=O)c1ccccc1NS(=O)(=O)c1cccc(OC)c1)c1ccccc1` [Example 63] had a 50% inhibitory concentration (IC50) of 1700 nM.

Molecule `CC[C@H](NC(=O)c1ccccc1NS(=O)(=O)c1ccc(OC)cc1)c1ccccc1` [Example 64] registered a concentration for half-maximal inhibition (IC50) of 600 nM. As for `CC[C@H](NC(=O)c1ccccc1NS(=O)(=O)c1cccc2c(N(C)C)cccc12)c1ccccc1` [Example 65], 4800 nM corresponded to half-maximal inhibition (IC50). As to `CC[C@H](NC(=O)c1ccccc1NS(=O)(=O)c1ccc(C(F)(F)F)cc1)c1ccccc1` [Example 66], inhibition was half-maximal at 4000 nM (IC50). `CC[C@H](NC(=O)c1ccccc1NS(=O)(=O)c1ccc(OC(F)(F)F)cc1)c1ccccc1` [Example 67] returned an IC50 of 5800 nM. For the molecule `CC[C@H](NC(=O)c1ccccc1NS(=O)(=O)c1ccc(Cl)cc1)c1ccccc1` [Example 68], 2900 nM corresponded to half-maximal inhibition (IC50).

Turning to `CC[C@H](NC(=O)c1ccccc1NS(=O)(=O)c1ccccc1)c1ccccc1` [Example 69], the midpoint of inhibition, the IC50, lay at 1300 nM.

For `COc1cccc(S(=O)(=O)Nc2ccccc2C(=O)N(Cc2ccccc2)Cc2cccnc2)c1` [Example 70], the IC50 was found to be 3800 nM. Molecule `CCCCS(=O)(=O)Nc1ccccc1C(=O)N(Cc1ccccc1)Cc1cccnc1` [Example 71] registered an IC50 of 6900 nM. To `CCc1ccc(S(=O)(=O)Nc2ccccc2C(=O)N(Cc2ccccc2)Cc2cccnc2)cc1` [Example 72] belongs 5000 nM; to `CCCS(=O)(=O)Nc1ccccc1C(=O)N[C@@H](CC)c1ccccc1` [Example 73], 3100 nM; to `CC[C@H](NC(=O)c1ccccc1NS(=O)(=O)CCC(C)C)c1ccccc1` [Example 74], 1700 nM. For the molecule `Cc1cccc(S(=O)(=O)Nc2ccccc2C(=O)N(Cc2ccccc2)Cc2cccnc2)c1` [Example 75], the IC50 is 2900 nM. Molecule `CC[C@H](NC(=O)c1ccccc1NS(=O)(=O)c1ccc(C)cc1OC)c1ccccc1` [Example 76] had a half-maximal inhibitory concentration (IC50) of 4700 nM. Molecule `CCc1ccc(S(=O)(=O)Nc2ccccc2C(=O)N[C@@H](CC)c2ccccc2)cc1` [Example 77] came in with an IC50 of 2600 nM. Molecule `Cc1ccc(S(=O)(=O)Nc2ccccc2C(=O)N(Cc2ccccc2)Cc2cccnc2)cc1` [Example 79] came in with an IC50 of 700 nM. `Cc1ccc(S(=O)(=O)Nc2ccc(F)cc2C(=O)N(Cc2ccccc2)Cc2nccn2C)cc1` [Example 81]: the concentration for half-maximal inhibition (IC50) was found to be 400 nM. `COc1cccc(CN(CC2CC2)C(=O)c2ccccc2NS(=O)(=O)c2ccc(C)cc2)c1` [Example 82] had an IC50 of 3200 nM. Consider `Cc1ccc(S(=O)(=O)Nc2ccccc2C(=O)N(Cc2ccccc2)Cc2cccn2C)cc1` [Example 83], for which it took 1900 nM to reach half-maximal inhibition (IC50).

Molecule `Cc1ccc(S(=O)(=O)Nc2ccccc2C(=O)N(Cc2ccccc2)Cc2nccs2)cc1` [Example 84] showed a half-inhibitory concentration (IC50) of 1000 nM. `Cc1ccc(S(=O)(=O)Nc2ccccc2C(=O)N(Cc2ccn[nH]2)CC2CC2)cc1` [Example 85] came in with an IC50 of 5200 nM. With `Cc1ccc(S(=O)(=O)Nc2ccccc2C(=O)N(Cc2ccccc2)Cc2ccc[nH]2)cc1` [Example 86], the IC50 was 1800 nM. `Cc1ccc(S(=O)(=O)Nc2ccccc2C(=O)N(Cc2cnc3ccccc3c2)CC2CC2)cc1` [Example 87] displayed an IC50 of 6000 nM. In the case of `CCc1nc(C)c(CN(Cc2ccccc2)C(=O)c2ccccc2NS(=O)(=O)c2ccc(C)cc2)[nH]1` [Example 88], inhibition was half-maximal at 3900 nM (IC50). In turn, `Cc1ccc(S(=O)(=O)Nc2ccccc2C(=O)N(Cc2ccccc2)Cc2nn(C)cc2Cl)cc1` [Example 89] came in with an IC50 of 3200 nM.

`CC[C@H](NC(=O)c1cc(OC)ccc1NS(=O)(=O)c1ccc(C)cc1)c1ccccc1` [Example 90] registered an IC50 of 500 nM. Molecule `CCC(NC(=O)c1cc(OC)ccc1NS(=O)(=O)c1ccc(C)cc1)c1ccc(F)cc1` (stereo not drawn) [Example 91] had an IC50 of 800 nM. To `CCCC(NC(=O)c1cc(OC)ccc1NS(=O)(=O)c1ccc(C)cc1)c1ccccc1` (stereo not drawn) [Example 92] belongs 900 nM; to `COc1ccc(NS(=O)(=O)c2ccc(C)cc2)c(C(=O)NC(c2ccccc2)C2CC2)c1` (stereo not drawn) [Example 93], 1100 nM. `O=C(NC(c1ccccc1)C1CC1)c1ccccc1NS(=O)(=O)c1ccccc1` (stereo not drawn) [Example 94] came in with an IC50 of 1000 nM. `COc1ccc(NS(=O)(=O)c2ccc(C)cc2)c(C(=O)N[C@@H](C)C2CCCCC2)c1` [Example 95] came in with an IC50 of 700 nM.
